Source: PMC8698759, “Gold(I) Complexes Bearing Alkylated 1,3,5-Triaza-7-phosphaadamantane Ligands as Thermoresponsive Anticancer Agents in Human Colon Cells” (Biomedicines, 2021)

Experiments:
[1] = test system: Human fibroblast cells; assay: MTT cytotoxicity assay on fibroblasts; format: cell-based; conditions: for fibroblasts viability when treated at the IC50 value in Caco-2: 3a 2.5 µM, 3b 5.1 µM, 2a 12.3 µM, 2b 10.5 µM; for Selectivity Index (SI): IC50 fibroblasts/IC50 Caco-2; for IC50: MTT, mean ± SE
Experimental: Human Caco-2 cell line (TC7 clone) was kindly provided by Dr. Edith Brot-Laroche (Université Pierre et Marie Curie-Paris 6, UMR S 872, Les Cordeliers, France). Human fibroblast cells were kindly provided by Dr. Julio Montoya (Unidad de Bioquímica, Facultad de Veterinaria, Universidad de Zaragoza, Spain). Caco-2 cells (passages 40–70) and fibroblasts (passages 10–30) were maintained in a humidified atmosphere of 5% CO2 at 37 °C. Cells were grown in Dulbecco’s Modified Eagles medium (DMEM) (Gibco Invitrogen, Paisley, UK) supplemented with 20% fetal bovine serum (FBS), 1% non-essential amino acids, 1% penicillin (1000 U/mL), 1% streptomycin (1000 μg/mL) and 1% amphotericin (250 U/mL). The cells were passaged enzymatically with 0.25% trypsin-1 mM EDTA. Caco-2 cells were sub-cultured on 25 cm^2 plastic flasks at a density of 1.2 × 10^4 cells/cm^2, while fibroblasts were sub-cultured on 75 cm^2 plastic flasks at a density of 1 × 10^4 cells/cm^2. Culture medium was replaced every 2 days.
Gold complex was diluted in dimethyl sulfoxide (DMSO) to a stock solution at 20 mM and then re-diluted to a working solution at 2.5 mM before diluting it in cell culture medium to treat cells at desired concentrations.
For cytotoxicity screening assays, Caco-2 cells were seeded in 96-well plates at a density of 4 × 10^3 cells/well. Culture medium was replaced with medium containing drug panel 24 h post-seeding and cells were incubated for 72 h. In fibroblasts, culture medium containing metal gold complexes was added 10 days post-seeding. Antiproliferative effect was measured with MTT assay as previously described by Mármol et al.. Absorbance at 540/620 nm was measured with SPECTROstar Nano (BMG Labtech). To determine the selectivity index (SI) the IC50 value in fibroblasts was divided by IC50 value in Caco-2, obtaining a ratio cancerous/normal cells toxicity.

[2] = test system: Caco-2 cells; assay: Mitochondrial membrane potential assay by flow cytometry (DilC1); format: cell-based, human; conditions: Caco-2, 48 h; 3a 5.0 µM, 3b 10.2 µM
Experimental: Caco-2 cells were seeded in 75 cm^2 flasks at a density of 1 × 10^4 cells/cm^2 and 24 h post-seeding medium was replaced with medium containing drug panel and incubated for 48 h. Then. cells were washed twice and resuspended in PBS at a concentration of 10^6 cells/mL before incubation with 5 µL of 10 µM 1,1′,3,3,3′-hexamethylindodicarbo-cyanine iodide (DilC1).

[3] = Distribution coefficient (logD7.4), shake-flask n-octanol/buffered water; format: physicochemical; conditions: n-octanol/phosphate buffered saline pH 7.4, shake-flask
Experimental: The n-octanol-water coefficients of the phosphane derivatives were determined as previously reported using a shake-flask method. Briefly: Buffered-saline distilled water (100 mL, phosphate buffer [PO4^3−] = 10 mM, [NaCl] = 0.15 M, pH 7.4) and n-octanol (100 mL) were shaken together for 72 h to allow saturation of both phases. 1 mg of the complexes was dissolved in 5 mL of the aqueous phase and 5 mL of the organic phase were added, mixing for 10 min. The concentration of the complexes in the organic and aqueous phases were then determined using UV absorbance spectroscopy. LogD7.4 = log{[compound(organic phase)]/[compound(aqueous phase)]}.
The lipophilicity can be measured by the partition coefficient water/n-octanol, logD, by experimental procedures such as the shake flask method, which affords the distribution of the drug between an equal amount of n-octanol and water (or buffered aqueous solution).

[4] = test system: Caco-2 cells; assay: Intracellular ROS levels, dichlorofluorescein assay; format: cell-based, human; conditions: for intracellular ROS levels, 1 h and 3 h: Caco-2, treated for 1 h and 3 h at IC50 values; for intracellular ROS levels, 24 h: Caco-2, treated for 24 h with IC50 values
Experimental: Caco-2 cells were seeded in 96-wells plate at a density of 4 × 10^3 cells/well and intracellular ROS levels were determined with the dichlorofluorescein assay. Cells were exposed to drug panel for 1, 3 and 24 h and then incubated with 20 µM 2′-7′-dichlorofluorescein diacetate (DCFH-DA) (Merck KGaA, Darmstadt, Germany) in DMEM. The generation of oxidised derivative DCF was monitored by measuring the increase of fluorescence for 1 h, at an emission wavelength of 520 nm and excitation of 485 nm, with a FLUOstar Omega (BMG Labtech, Ortenberg, Germany) multiplate reader. Results were expressed as percentage of fluorescence respect to control, considering fluorescence intensity as a reflection of intracellular ROS levels.

| SMILES | fibroblasts viability when treated at the IC50 value in Caco-2 [1] | Selectivity Index (SI) [1] | IC50 [1] | mitochondrial depolarisation (cells with reduced ΔΨm) [2] | logD7.4 [3] | intracellular ROS levels, 1 h and 3 h [4] | intracellular ROS levels, 24 h [4] |
| --- | --- | --- | --- | --- | --- | --- | --- |
| CCCCCCCC[N+]12CN3CN(C1)C[P+]([Au-][S]c1ccccn1)(C3)C2.[I-] [Complex 3a, [Au(C5H5NS)(PTA-CH2(CH2)6CH3)]I] | did not compromise fibroblasts viability | 4.86 | 12.11 ± 0.11 µM | induced mitochondrion depolarisation | 0.35 | did not bring significant changes | significant increase |
| FC(F)(F)C(F)(F)C(F)(F)C(F)(F)C(F)(F)C(F)(F)CC[N+]12CN3CN(C1)C[P+]([Au-][S]c1ccccn1)(C3)C2.O=S(=O)([O-])C(F)(F)F [Complex 3b, [Au(C5H5NS)(PTA-CH2CH2(CF2)5CF3)](TfO)] | did not compromise fibroblasts viability | 2.51 | 12.8 ± 1.48 µM | induced mitochondrion depolarisation | 0.44 | did not bring significant changes | significant increase |
